Patent US9949976B2, “Kinase inhibitor and use thereof” (Sihuan Pharmaceutical Holdings Group Ltd., priority 2013, dated 2018)

Experiments:
[1] = tested on: MV-4-11 leukemia cell; assay: BrdU cell proliferation assay (PerkinElme kit); type: cell-based; settings: Homo sapiens, MV4-11, 48 h; read-out: In vitro cell-inhibiting activity IC50 MV-4-11
Method: Experimental method: cell proliferation assay was carried out by BrdU method (BrdU cell proliferation assay kit, PerkinElme Company).
Preparation of gradient dilution solutions of test compound: the stock solution containing 5 mM test compound was diluted by DMSO to prepare a 2 mM solution, then was subjected to 4-fold stepwise dilution to 9 concentration gradients.
MV-4-11 medium: IMDM+10% FBS
(1) Cells grown to exponential growth phase were digested with pancreatin, and centrifuged to collect the cells. The adherent cells were re-suspended in the corresponding culture medium, counted, and seeded to a 96-well plate; H358 cells and SW780 cells were seeded at 4000 cells/well/100 μL; PC3 cells were seeded at 1500 cells/well/100 μL; H441 cells were seeded at 6000 cells/well/100 μL. The plates were placed in a cell incubator at 37° C. After the cells adhered to the wall, the medium was replaced by serum-free medium. The suspended cells MV-4-11 and JeKo-1 were re-suspended with serum-free medium, counted, seeded to a 96-well plate by 10000 cells/well/100 μL and placed in a cell incubator overnight at 37° C. with 5% CO2. […]
(6) To each well, 200 μL of DELFIA Inducer was added and incubated for 15 min at room temperature. Value of fluorescence (Flu) was measured by ELISA instrument […]

[2] = tested on: esophageal cancer PDX model; assay: In vivo pharmacodynamics, esophageal cancer PDX model; design: species or system female BALB/c nude mouse; settings: 150 mg/kg PO QD 21 days
Method: Tumor tissues were harvested from tumor-bearing mice of esophageal cancer PDX model, cut into pieces with diameter of 2-4 mm and seeded subcutaneously to right lateral thorax of female BALB/c nude mouse. When the tumors' average volume reached about 150 mm^3, the animals were grouped and administered with a drug. Compound 1 was orally administrated once a day at an amount of 150 mg/kg, for 21 days. The volume of the drug for administration is 0.1 mL/10 g according to animal's body weight.
Tumor volume was measured with vernier calipers twice a week by measuring the major diameter and the minor diameter. The tumor volume is calculated by the following formula: volume=0.5×(major diameter)×(minor diameter)^2. The relative tumor volume (RTV) and the proliferation ratio (T/C) were calculated according to the result of measurement. RTV=Vt/V0, wherein Vt is the average tumor volume on the t day after grouping, and V0 is the average tumor volume on the day of grouping. T/C (%)=RTV of treatment group/RTV of solvent control group×100%.
One-way ANOVA was used for analysing the group statistical analysis of tumor volumes. p<0.05 was regarded as having significant difference.

[3] = tested on: MDA-MB-435S human melanoma cell; assay: BrdU cell proliferation assay (Cell Signaling kit); type: cell-based; settings: 72 h, read-out: In vitro cell-inhibiting activity IC50 MDA-MB-435S
Method: Experimental method: cell proliferation assay was carried out by BrdU method (BrdU cell proliferation assay kit, Cell Signaling Technology Company).
Preparation of gradient dilution solutions of test compound: the stock solution containing 10 mM test compound was subjected to 4-fold stepwise dilution with DMSO to prepare solutions containing 2.5 mM, 625 μM, 156 μM, 39 μM, 9.8 μM, and 2.5 μM test compound, respectively. 2 μL DMSO-diluted compound was added to 198 μL culture medium containing 10% FBS to prepare […] test compound, wherein the maximum concentration of the test compound was 100 μM, the concentration of DMSO was 1%, and there were 7 concentration gradients.
MDA-MB-435S medium: L-15+10% FBS+0.01 mg/mL insulin
(1) Cells grown to 80% confluence (in exponential growth phase) were digested with pancreatin, and centrifuged to collect the cells. MDA-MB-435S and U87MG cells were re-suspended in FBS-free culture medium, counted, and seeded to a 96-well plate; MDA-MB-435S cells were seeded at 3000 cells/well/81 μL; U87MG cells were seeded at 4000 cells/well/81 MCF-7 cells were resuspended in culture medium containing 1% FBS, and counted and seeded to a 96-well plate, at 4000 cell/well/82 μL. The plates were placed in a cell incubator at 37° C. […]
(9) To each well, stop solution (100 μL) was added, and OD value at 450 nm was measured by ELISA instrument […]

| SMILES | IC50 [1] [nM] | T/C (proliferation ratio) ([2]; 150 mg/kg) [%] | Tumor volume after administration ([2]; average ± standard error) [mm^3] | Tumor volume before administration ([2]; average ± standard error) [mm^3] | IC50 [3] [nM] |
| --- | --- | --- | --- | --- | --- |
| CCN1CCN(Cc2cnc(Nc3cc(-c4cc(F)c5nc(C)n(C(C)C)c5c4)c(F)cn3)nc2)CC1 [Compound 1, 5-((4-ethylpiperazin-1-yl)methyl)-N-(5-fluoro-4-(4-fluoro-1-isopropyl-2-methyl-1H-benzo[d]imidazol-6-yl)pyridin-2-yl)pyrimidin-2-amine] | 139 | 29 | 221.6 ± 27.2 | 177.7 ± 28.5 |  |
| CCN1CCN(Cc2ccc(Nc3ncc(F)c(-c4cc(F)c5nc(C)n(C(C)C)c5c4)n3)nc2)CC1 [LY2835219, reference compound] |  |  |  |  | 200 |
